One data set is described as follows: in vitro. Particulars: mouse. As to the method: The cytotoxicity of the five selected compounds was tested using murine macrophage cell line J774.2 (ATCC ®TIB-67). […] For this, macrophages were seeded (5 × 10^4 cells/well) in 96-well flat-bottomed microplates and allowed to adhere for 24 h at 37 °C in 5% CO2. […] Thereafter, 20 µL of a 2.5 mM resazurin solution was added to each well, and the plates were incubated for another 4 h. The fluorescence emission was measured as described above. The half-maximal cytotoxicity concentration (CC50) was determined by Probit analysis.

The test system of data set [1] is L. mexicana promastigotes strain MNYC/BZ/62/M379. The experiment in a line: Activity against L. mexicana promastigotes (resazurin method). As to conditions: for SI (selectivity index): SI = CC50/IC50 (J774.2 / L. mexicana promastigotes).
Procedure: After incubation for 48 h at 26 °C, 20 µL of 2.5 mM resazurin solution was added to each well and incubated for 4 h. […] All assays were carried out in triplicate. The half-maximal inhibitory concentration (IC50) was determined by Probit analysis.
A further data set deals with rLmTR. The data set is described as follows: Kinetic characterization of rLmTR with substrate T[S]2. Format: biochemical, Leishmania mexicana. As to conditions: T[S]2 as substrate, 150 µM NADPH. As to the method:
(§1) The enzymatic activity of rLmTR was assayed spectrophotometrically as previously described. The reaction mixture contained 40 mM Hepes, pH 7.5, 1 mM EDTA, 150 µM NADPH, and 30 ng rLmTR. The reaction was initiated by adding the substrate (T[S]2) at 400 µM and was allowed to proceed for 1 min. NADPH oxidation was followed at 340 nm, monitored every 20 s, in a Synergy™ H1 microplate reader (Biotek Instruments, Inc. Winooski, VT, USA). The decrease in the absorbance at 340 nm was used to determine the moles of substrate consumed. One unit of enzyme activity is defined as the amount of enzyme required to convert 1 μmol of NADPH to NADP per minute at 25 °C [42].
The kinetic data were analyzed by linear regression fit to Michaelis–Menten kinetics and linearized by the double reciprocal transformation of Lineweaver and Burk.

For the next data set, the system named is recombinant LmTR (rLmTR). The data set is described as follows: Inhibition of rLmTR activity (NADPH oxidation at 340 nm). Format: biochemical, Leishmania mexicana. Particulars: 10% DMSO. As to the method: as §1
(§2) Compounds ZINC04684558, ZINC09642432, ZINC12151998, ZINC14970552, and ZINC11841871 with affinity to the LmTR catalytic site with docking scores of at most −5.29 kcal/mol were selected to evaluate their in vitro inhibition of rLmTR activity. […] The assay was carried out following the conditions previously described to determine the rLmTR activity. The percentage of inhibition was obtained using the following equation:(1) % Inhibition=[…] where A0 is the enzyme activity without inhibitor and A1 is the enzyme activity in the presence of inhibitor.

The nature of data set [2]: Solubility in the enzyme assay (observation). The data set is classed as physicochemical. As to conditions: prevented testing at higher concentration in the rLmTR assay. The protocol:
as §2

Where [3] appears, read: Leishmania mexicana, 48 h, read-out: IC50 (leishmanicidal activity), L. mexicana promastigotes, 48 h at 26 °C.

Like-named read-outs stand apart in the source and are kept apart here.

In general, IC50 refers to the concentration needed to halve the response being measured. Turning to `C[C@@H]1[C@H](O)[C@@H](C)/C=C/C=C/C=C/C=C/C=C/C=C/C=C/[C@H](O[C@@H]2O[C@H](C)[C@@H](O)[C@H](N)[C@@H]2O)C[C@@H]2O[C@](O)(C[C@@H](O)C[C@@H](O)[C@H](O)CC[C@@H](O)C[C@@H](O)CC(=O)O[C@H]1C)C[C@H](O)[C@H]2C(=O)O` [Amphotericin B, reference compound], the CC50 at 24 h in the data set “in vitro” came out at 7.4 µM. For the same compound, the IC50 in data set [1] (setting [3]) was 0.11 µM. The “SI (selectivity index)” value in data set [1] is 67.

As for `CCCCCCCCCCCCCCCCOP(=O)([O-])OCC[N+](C)(C)C` [Miltefosine, reference compound], the CC50 at 24 h in “in vitro” turned out to be 141 µM. For the same compound, the IC50 in data set [1] (setting [3]) was found to be 2.98 µM. In data set [1], the “SI (selectivity index)” value is on record as 47.

Broadly, the Km is the concentration of substrate that gives half-maximal velocity. Regarding `N[C@@H](CCC(=O)N[C@H]1CSSC[C@H](NC(=O)CC[C@H](N)C(=O)O)C(=O)NCC(=O)NCCCNCCCCNC(=O)CNC1=O)C(=O)O` [T[S]2, trypanothione disulfide], the Km in the data set with rLmTR stood at 173 µM.

For the compound `Cc1nnc(N2CCN(C(=O)Nc3ccc(F)cc3F)CC2)c2nn(-c3ccccc3)c(C)c12` [ZINC09642432], the “% Inhibition of rLmTR activity” value in the data set on recombinant LmTR (rLmTR) (compound at 300 µM) is recorded as 40.1%. In the data set “in vitro” (J774.2 macrophage cell line), the CC50 at 24 h was 335 µM. Also, the IC50 in data set [1] (setting [3]) is > 200 µM; in data set [1] (read-out: IC50 (leishmanicidal activity), L. mexicana promastigotes, 48 h at 26 °C) it was 222 µM. Also, in data set [1], the “SI (selectivity index)” value turned out to be 1.5.

For `CC(=O)N[C@@H]1c2ccccc2C2(CCN(C(=O)c3n[nH]c4ccccc34)CC2)[C@H]1OCc1ccccc1` [ZINC11841871], the “% Inhibition of rLmTR activity” value with recombinant LmTR (rLmTR) (compound at 150 µM) was 39.5%. This compound yielded a CC50 at 24 h in “in vitro” (J774.2 macrophage cell line) of 103 µM. The Solubility entry in data set [2] is “poor solubility”. Besides, the IC50 in data set [1] (setting [3]) was found to be 159 µM. Also, the “SI (selectivity index)” value in data set [1] is listed as 0.6.

On to `O=C(NCc1ccc2ncccc2c1)c1cnn(-c2ncc3c(n2)-c2ccccc2CCC3)c1C1CC1` [ZINC12151998], for which, in the data set on recombinant LmTR (rLmTR) (compound at 100 µM), the “% Inhibition of rLmTR activity” value came to 32.9%. The CC50 at 24 h in the data set “in vitro” (J774.2 macrophage cell line) is 53 µM. The Solubility entry in data set [2] is on record as “poor solubility”. In addition, in data set [1] (setting [3]), the IC50 was 58 µM. In addition, in data set [1], the “SI (selectivity index)” value is 0.9.

Take `CC1(C)C[C@H](NC(=O)c2cnn(-c3ncc4c(n3)-c3ccccc3CC4)c2C2CC2)CCO1` [ZINC14970552]: the “% Inhibition of rLmTR activity” value in the data set on recombinant LmTR (rLmTR) (compound at 300 µM) was determined as 35.7%. This compound came in with a CC50 at 24 h in “in vitro” (J774.2 macrophage cell line) of 219 µM. Also, the half-inhibitory concentration (IC50) in data set [1] (setting [3]) stood at 147 µM. Moreover, in data set [1], the “SI (selectivity index)” value turned out to be 1.4.

Source of the values: paper PMC6767256, “Leishmania mexicana Trypanothione Reductase Inhibitors: Computational and Biological Studies” (Molecules, 2019).
